# Patent publication US20240116892A1, “HETEROCYCLIC AMIDE AND UREA COMPOUNDS AS JAK2 INHIBITORS” (Ajax Therapeutics, Inc., priority 2022, published 2024)
# pKd: −log10 of the molar value.
# Molecular target: JAK2 (JH1 domain-catalytic, Y1007F, Y1008F) kinase (Homo sapiens (Human), UniProt O60674, Y1007F/Y1008F)
# Assay: JAK2 JH1 Domain Binding Assay
# Settings: qPCR readout
# Procedure, shortened: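 JH1 catalytic domain (Y1007F/Y1008F) expressed as NFkB DNA-binding-domain fusion in HEK293 cells, DNA-tagged. Competition with immobilized biotinylated ligand on streptavidin beads, 1 h at RT in PBS/Tween/BSA/DTT; bound kinase eluted with free ligand and quantified by qPCR.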
# Chain of JAK2 (JH1 domain-catalytic, Y1007F, Y1008F) kinase (O60674 849-1124 Y1007F/Y1008F): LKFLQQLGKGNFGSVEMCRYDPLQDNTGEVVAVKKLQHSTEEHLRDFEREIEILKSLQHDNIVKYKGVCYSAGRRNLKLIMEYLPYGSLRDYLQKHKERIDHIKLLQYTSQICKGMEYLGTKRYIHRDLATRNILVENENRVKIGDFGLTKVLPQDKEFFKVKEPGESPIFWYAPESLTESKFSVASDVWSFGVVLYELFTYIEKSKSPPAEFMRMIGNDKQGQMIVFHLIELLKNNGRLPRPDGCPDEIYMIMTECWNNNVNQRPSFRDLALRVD
row,pKd,SMILES
1,> 8.00,"Cc1n[nH]c2ncc(N3CCC(N(C)C(=O)Nc4cc(C(F)(F)F)cn(C)c4=O)CC3)cc12 [Example I-28, 1-methyl-1-(1-(3-methyl-1H-pyrazolo[3,4-b]pyridin-5-yl)piperidin-4-yl)-3-(1-methyl-2-oxo-5-(trifluoromethyl)-1,2-dihydropyridin-3-yl)urea]"
2,> 8.00,"CN(C(=O)Nc1cc(C(F)(F)F)cn(C)c1=O)[C@@H]1CCN(c2cnc3[nH]ncc3c2)CC1(F)F [Example I-29-a, (R)-1-(3,3-difluoro-1-(1H-pyrazolo[3,4-b]pyridin-5-yl)piperidin-4-yl)-1-methyl-3-(1-methyl-2-oxo-5-(trifluoromethyl)-1,2-dihydropyridin-3-yl)urea]"
3,> 8.00,"CN(C(=O)Nc1cc(C(F)(F)F)cn(C)c1=O)[C@H]1CCN(c2cnc3[nH]ncc3c2)CC1(F)F [Example I-29-b, (S)-1-(3,3-difluoro-1-(1H-pyrazolo[3,4-b]pyridin-5-yl)piperidin-4-yl)-1-methyl-3-(1-methyl-2-oxo-5-(trifluoromethyl)-1,2-dihydropyridin-3-yl)urea]"
4,> 8.00,"Cc1c[nH]c2ncc(N3CCC(N(C)C(=O)Nc4cc(C(F)(F)F)cn(C)c4=O)CC3)nc12 [Example I-30, 1-methyl-3-(1-methyl-2-oxo-5-(trifluoromethyl)-1,2-dihydropyridin-3-yl)-1-(1-(7-methyl-5H-pyrrolo[2,3-b]pyrazin-2-yl)piperidin-4-yl)urea]"
5,> 8.00,"Cc1cc2nc(N3CCC(N(C)C(=O)Nc4cc(C(F)(F)F)cn(C)c4=O)CC3)cnc2[nH]1 [Example I-31, 1-methyl-3-(1-methyl-2-oxo-5-(trifluoromethyl)-1,2-dihydropyridin-3-yl)-1-(1-(6-methyl-5H-pyrrolo[2,3-b]pyrazin-2-yl)piperidin-4-yl)urea]"
6,7.30 to 8.00,"CN(C(=O)Nc1cc(C(F)(F)F)cn(C)c1=O)C1CCN(c2cnc3[nH]cnc3c2)CC1 [Example I-38, 1-(1-(3H-imidazo[4,5-b]pyridin-6-yl)piperidin-4-yl)-1-methyl-3-(1-methyl-2-oxo-5-(trifluoromethyl)-1,2-dihydropyridin-3-yl)urea]"
7,> 8.00,"CN(C(=O)Nc1cc(C(F)(F)F)cn(C)c1=O)C1CCN(c2cnc3[nH]cc(F)c3n2)CC1 [Example I-39, 1-(1-(7-fluoro-5H-pyrrolo[2,3-b]pyrazin-2-yl)piperidin-4-yl)-1-methyl-3-(1-methyl-2-oxo-5-(trifluoromethyl)-1,2-dihydropyridin-3-yl)urea]"
8,> 8.00,"CN(C(=O)Nc1cc(C(F)(F)F)cn(C)c1=O)C1CCN(c2cnc3[nH]cc(C4CC4)c3n2)CC1 [Example I-40, 1-(1-(7-cyclopropyl-5H-pyrrolo[2,3-b]pyrazin-2-yl)piperidin-4-yl)-1-methyl-3-(1-methyl-2-oxo-5-(trifluoromethyl)-1,2-dihydropyridin-3-yl)urea]"
9,> 8.00,"CNc1ccnc2c(N3CCC(N(C)C(=O)Nc4cc(C(F)(F)F)cn(C)c4=O)CC3)cnn12 [Example I-42, 1-methyl-3-(1-methyl-2-oxo-5-(trifluoromethyl)-1,2-dihydropyridin-3-yl)-1-(1-(7-(methylamino)pyrazolo[1,5-a]pyrimidin-3-yl)piperidin-4-yl)urea]"
10,7.30 to 8.00,"CN(C(=O)Nc1cc(C(F)(F)F)cn(C)c1=O)[C@@H]1C[C@@H]2C[C@H]1CN2c1cnc2[nH]ccc2n1 [Example I-43-a, 1-((1S,4S,5R)-2-(5H-pyrrolo[2,3-b]pyrazin-2-yl)-2-azabicyclo[2.2.1]heptan-5-yl)-1-methyl-3-(1-methyl-2-oxo-5-(trifluoromethyl)-1,2-dihydropyridin-3-yl)urea]"
11,7.30 to 8.00,"CN(C(=O)Nc1cc(C(F)(F)F)cn(C)c1=O)[C@H]1C[C@H]2C[C@@H]1CN2c1cnc2[nH]ccc2n1 [Example I-43-b, 1-((1R,4R,5S)-2-(5H-pyrrolo[2,3-b]pyrazin-2-yl)-2-azabicyclo[2.2.1]heptan-5-yl)-1-methyl-3-(1-methyl-2-oxo-5-(trifluoromethyl)-1,2-dihydropyridin-3-yl)urea]"
12,> 8.00,"CN(C)c1n[nH]c2ncc(N3CCC(N(C)C(=O)Nc4cc(C(F)(F)F)cn(C)c4=O)CC3)cc12 [Example I-46, 1-(1-(3-(dimethylamino)-1H-pyrazolo[3,4-b]pyridin-5-yl)piperidin-4-yl)-1-methyl-3-(1-methyl-2-oxo-5-(trifluoromethyl)-1,2-dihydropyridin-3-yl)urea]"
13,7.30 to 8.00,"Cn1cc(C(F)(F)F)cc(NC(=O)N2CCCC23CCN(c2cnc4[nH]ccc4n2)CC3)c1=O [Example I-47, N-(1-methyl-2-oxo-5-(trifluoromethyl)-1,2-dihydropyridin-3-yl)-8-(5H-pyrrolo[2,3-b]pyrazin-2-yl)-1,8-diazaspiro[4.5]decane-1-carboxamide]"
14,7.30 to 8.00,"CN(C)C(=O)Nc1cnc(N2CCC(N(C)C(=O)Nc3cc(C(F)(F)F)cn(C)c3=O)CC2)cn1 [Example I-48, 1,1-dimethyl-3-(5-(4-(1-methyl-3-(1-methyl-2-oxo-5-(trifluoromethyl)-1,2-dihydropyridin-3-yl)ureido)piperidin-1-yl)pyrazin-2-yl)urea]"
15,7.30 to 8.00,"Cn1cc(C(F)(F)F)cc(NC(=O)N2CCCC23CCN(c2cnc4[nH]ncc4c2)CC3)c1=O [Example I-50, N-(1-methyl-2-oxo-5-(trifluoromethyl)-1,2-dihydropyridin-3-yl)-8-(1H-pyrazolo[3,4-b]pyridin-5-yl)-1,8-diazaspiro[4.5]decane-1-carboxamide]"
16,7.30 to 8.00,"CN(C(=O)Nc1cc(C(F)(F)F)cn(C)c1=O)C1(C)CCN(c2cnc3[nH]ccc3n2)CC1 [Example I-51, 1-methyl-1-(4-methyl-1-(5H-pyrrolo[2,3-b]pyrazin-2-yl)piperidin-4-yl)-3-(1-methyl-2-oxo-5-(trifluoromethyl)-1,2-dihydropyridin-3-yl)urea]"
17,6.00 to 7.30,"Cn1cc(C(F)(F)F)cc(NC(=O)N2CCCC23CCN(c2cnc4[nH]cc(F)c4n2)CC3)c1=O [Example I-52, 8-(7-fluoro-5H-pyrrolo[2,3-b]pyrazin-2-yl)-N-(1-methyl-2-oxo-5-(trifluoromethyl)-1,2-dihydropyridin-3-yl)-1,8-diazaspiro[4.5]decane-1-carboxamide]"
18,> 8.00,"CN(C(=O)Nc1cc(C(F)(F)F)cn(C)c1=O)C1CC2(C1)CN(c1cnc3[nH]ccc3n1)C2 [Example I-55, 1-(2-(5H-pyrrolo[2,3-b]pyrazin-2-yl)-2-azaspiro[3.3]heptan-6-yl)-1-methyl-3-(1-methyl-2-oxo-5-(trifluoromethyl)-1,2-dihydropyridin-3-yl)urea]"
19,7.30 to 8.00,"CN(C(=O)Nc1cc(C(F)(F)F)cn(C)c1=O)C1(C)CCN(c2cnc3[nH]cc(F)c3n2)CC1 [Example I-56, 1-(1-(7-fluoro-5H-pyrrolo[2,3-b]pyrazin-2-yl)-4-methylpiperidin-4-yl)-1-methyl-3-(1-methyl-2-oxo-5-(trifluoromethyl)-1,2-dihydropyridin-3-yl)urea]"
20,> 8.00,"CN(C(=O)Nc1cc(C(F)(F)F)cn(C)c1=O)C1CC2(C1)CN(c1cnc3[nH]ncc3c1)C2 [Example I-57, 1-(2-(1H-pyrazolo[3,4-b]pyridin-5-yl)-2-azaspiro[3.3]heptan-6-yl)-1-methyl-3-(1-methyl-2-oxo-5-(trifluoromethyl)-1,2-dihydropyridin-3-yl)urea]"
